“And” between values parts separate entries of the source, which are not always exact repeats. Equal entries are not always repeated. Where two headings read alike, the source gives them in different places.
Assays:
[1] = Pharmacokinetic test in rats; assay type: in vivo, Sprague-Dawley rats; settings: rat
Method: 14 male Sprague-Dawley rats, weigh 200-220 g, were randomly divided into 4 groups with 4/3 in each group. The rats were intragastrically and intravenously administered with compound 7S and 8S respectively. The compounds were dissolved in normal saline containing 5% of DMSO and solubilized with 5% of tween-80 (Tween 80), and the final concentration of the sample was 1 mg/ml.
The rats were fasted 12 h before the test, free drinking water. They were fed 2 h after administration.
gavage administration: 0.25 h, 0.5 h, 1.0 h, 2.0 h, 3.0 h, 4.0 h, 6.0 h, 8.0 h and 24 h after administration;
intravenous administration: 5 min, 0.25 h, 0.5 h, 1.0 h, 2.0 h, 4.0 h, 6.0 h, 8.0 h and 24 h after administration;
0.3 ml venous blood was collected from the retrobulbar venous plexus of rats at the above time point, and placed in a heparinized tube and centrifuged at 11000 rpm for 5 min. The plasma was separated and frozen in a refrigerator at −20° C.
The concentrations of the compounds in rat plasma were measured by LC/MS/MS.
Pharmacokinetic parameters after administration were calculated using the non-compartmental model of the Phoenix 1.3 software (Pharsight, U.S.A.).
Peak concentration Cmax and peak time Tmax were the measured values;
The area under the curve of the drug concentration vs. time AUC0-t value: calculated according to trapezoidal rule; AUC0-∞=AUC0-t+Ct/ke, Ct is the plasma concentration at the last measurable time point, ke is the elimination rate constant;
Elimination half-life t1/2=0.693/ke;
Average retention time MRT=AUMC/AUC.
Clearance rate CL=D/AUC0-∞;
Volume of distribution at steady state Vss=CL×MRT

ErbB4 = ErbB4 (Homo sapiens, UniProt Q15303); experiment: Tyrosine kinase inhibition rate (ELISA), ErbB4; assay type: biochemical; settings: read-out: Inhibtion rate (%) ErbB4
c-Met kinase = target: T1, c-Met kinase (Homo sapiens, UniProt P08581); experiment: Inhibitory effect on c-Met kinase activity at molecular level (ELISA); assay type: biochemical;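 note: recombinant c-Met kinase domain with 5 µM ATP, 1 h at 37 °C, substrate phosphorylation detected by anti-phosphotyrosine PY99 ELISA at 490 nm versus DMSO negative control, ATP-free wells as blank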
T1 construct: c-Met kinase domain recombinant protein diluted with 49 μL of the reaction buffer was added
Method: Experiment for Preliminarily Evaluating the Inhibitory Effect on the Activity of Receptor Tyrosine Kinase c-Met at Molecular Level
After discarding the liquid in the wells, the plate was washed with T-PBS (0.1% Tween-20 in PBS) in an amount of 200 μL/well three times, each for 5 minutes. The ELISA plate was dried in an oven at 37° C. for 1-2 hours. 50 μl of adenosine triphosphate (ATP) solution diluted with reaction buffer (50 mM 4-hydroxyethylpiperazine ethanesulfonic acid (HEPES) pH 7.4, 50 mM MgCl2, 0.5 mM MnCl2, 0.2 mM Na3VO4, 1 mM dithiothreitol (DTT)) to a final concentration of 5 μM was added to each well. The compounds were diluted to an appropriate concentration with DMSO (1 μL/well) or a solution containing DMSO in a corresponding concentration (negative control well), and then c-Met kinase domain recombinant protein diluted with 49 μL of the reaction buffer was added therein to initiate the reaction, with two ATP-free control wells for each test. The plate was placed in a shaker (100 rpm) at 37° C. for reacting 1 hour, and washed with T-PBS three times. Primary antibody PY99 diluent was added in an amount of 100 μL/well to allow the reaction in a shaker at 37° C. for 0.5 hour, and then the plate was washed with T-PBS three times. Then the secondary antibody horseradish peroxidase labeled goat anti-mouse IgG diluent was added in an amount of 100 μL/well, and the plate was placed in a shaker at 37° C. for reacting 0.5 hour, and then washed with T-PBS three times. 2 mg/ml of o-phenylenediamine (OPD) coloring solution (diluted with 0.1 M citric acid-sodium citrate buffer (pH=5.4) containing 0.03% H2O2) was then added at 100 μL/well and reacted at 25° C. for 1-10 min with light blocked (ultrasound was required to dissolve OPD, the coloring solution was prepared when needed). The reaction was stopped by adding 2 M of H2SO4 in an amount of 50 μL/well, and a wavelength-adjustable microplate reader SPECTRA MAX 190 was read at 490 nm.
The inhibition rate of the sample was calculated by the following equation:

EPH-A2 = EPH-A2 (Homo sapiens, UniProt P29317); experiment: Tyrosine kinase inhibition rate (ELISA), EPH-A2; assay type: biochemical; settings: read-out: Inhibtion rate (%) EPH-A2
ALK = ALK (Homo sapiens, UniProt Q9UM73); experiment: Tyrosine kinase inhibition rate (ELISA), ALK; assay type: biochemical; settings: read-out: Inhibtion rate (%) ALK
EBC-1 cells = experiment: Inhibition of c-Met-mediated EBC-1 cell proliferation (SRB staining); assay type: cell-based; settings: Homo sapiens, 72 hours treatment
Outline: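 MET-amplified EBC-1 NSCLC cells in log phase were seeded, cultured overnight, then exposed to compound in triplicate for 72 h. Growth was measured by TCA fixation, SRB staining and OD at 515 nm. IC50 reported as a range from the initial screening concentrations; experiment repeated twice.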

c-Src = c-Src (Homo sapiens, UniProt P12931); experiment: Tyrosine kinase inhibition rate (ELISA), c-Src; assay type: biochemical; settings: read-out: Inhibtion rate (%) c-Src
FGFR1 = FGFR1 (Homo sapiens, UniProt P11362); experiment: Tyrosine kinase inhibition rate (ELISA), FGFR1; assay type: biochemical; settings: read-out: Inhibtion rate (%) FGFR1
PDGFR-α = PDGFR-α (Homo sapiens, UniProt P16234); experiment: Tyrosine kinase inhibition rate (ELISA), PDGFR-α; assay type: biochemical; settings: read-out: Inhibtion rate (%) PDGFR-α
Flt-1 = Flt-1 (Homo sapiens, UniProt P17948); experiment: Tyrosine kinase inhibition rate (ELISA), Flt-1; assay type: biochemical; settings: read-out: Inhibtion rate (%) Flt-1
IGF1R = IGF1R (Homo sapiens, UniProt P08069); experiment: Tyrosine kinase inhibition rate (ELISA), IGF1R; assay type: biochemical; settings: read-out: Inhibtion rate (%) IGF1R
[2] = test system: human lung cancer EBC-1 xenograft tumor; experiment: Growth inhibition of subcutaneous xenograft tumor of human lung cancer EBC-1 in nude mice; assay type: in vivo; settings: for RTV (mean ± SD) / T/C (%) / TV (mm^3, mean ± SD) d21 / Weight (g) d21: d21
Method: EBC-1 cells were subcutaneously inoculated into the armpit on the right side of the nude mice in an amount of 5×10^6/mouse respectively to form xenograft tumor, which were then passaged in nude mice for three generations. Tumor tissue that was growing vigorously was cut into about 1.5 mm^3 under sterile conditions, and subcutaneously inoculated into the armpit on the right side of the nude mice, and the diameter of the xenograft tumor was measured with a vernier caliper. The diameter of the subcutaneous xenograft tumor in nude mice was measured with a vernier caliper. […] The diameter of xenograft tumor was measured twice a week and the body weight of mice was weighed during the whole experiment. The tumor volume (TV) was calculated by the following equation: TV=½×a×b^2, wherein a and b represent the length and width, respectively. The relative tumor volume (RTV) was calculated based on the measured results, and the calculation equation thereof is: RTV=Vt/V0, wherein V0 is the tumor volume measured when the mice were divided in different cages and administered (i.e., d0) and Vt is the tumor volume measured each time.

PDGFR-β = PDGFR-β (Homo sapiens, UniProt P09619); experiment: Tyrosine kinase inhibition rate (ELISA), PDGFR-β; assay type: biochemical; settings: read-out: Inhibtion rate (%) PDGFR-β
EGFR = EGFR (Homo sapiens, UniProt P00533); experiment: Tyrosine kinase inhibition rate (ELISA), EGFR; assay type: biochemical; settings: read-out: Inhibtion rate (%) EGFR
ABL = ABL (Homo sapiens, UniProt P00519); experiment: Tyrosine kinase inhibition rate (ELISA), ABL; assay type: biochemical; settings: read-out: Inhibtion rate (%) ABL
RET = RET (Homo sapiens, UniProt P07949); experiment: Tyrosine kinase inhibition rate (ELISA), RET; assay type: biochemical; settings: read-out: Inhibtion rate (%) RET
[3] = male, Sprague-Dawley, plasma, po, intragastric (gavage) 10 mg/kg, mean
[4] = male, Sprague-Dawley, plasma, intravenous 5 mg/kg, mean
[5] = 100 mg/kg oral once a day for 21 days

T1 sequence (P08581 1078-1345 limits assumed): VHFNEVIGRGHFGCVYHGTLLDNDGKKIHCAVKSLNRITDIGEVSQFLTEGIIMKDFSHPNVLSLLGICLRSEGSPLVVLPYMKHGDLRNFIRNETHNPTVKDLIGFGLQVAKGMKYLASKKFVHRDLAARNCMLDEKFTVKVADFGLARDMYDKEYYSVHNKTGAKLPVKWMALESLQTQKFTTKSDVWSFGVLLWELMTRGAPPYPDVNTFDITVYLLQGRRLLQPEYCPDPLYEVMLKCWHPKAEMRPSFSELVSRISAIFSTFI
Chain of EPH-A2 (P29317 24-976, species assumed): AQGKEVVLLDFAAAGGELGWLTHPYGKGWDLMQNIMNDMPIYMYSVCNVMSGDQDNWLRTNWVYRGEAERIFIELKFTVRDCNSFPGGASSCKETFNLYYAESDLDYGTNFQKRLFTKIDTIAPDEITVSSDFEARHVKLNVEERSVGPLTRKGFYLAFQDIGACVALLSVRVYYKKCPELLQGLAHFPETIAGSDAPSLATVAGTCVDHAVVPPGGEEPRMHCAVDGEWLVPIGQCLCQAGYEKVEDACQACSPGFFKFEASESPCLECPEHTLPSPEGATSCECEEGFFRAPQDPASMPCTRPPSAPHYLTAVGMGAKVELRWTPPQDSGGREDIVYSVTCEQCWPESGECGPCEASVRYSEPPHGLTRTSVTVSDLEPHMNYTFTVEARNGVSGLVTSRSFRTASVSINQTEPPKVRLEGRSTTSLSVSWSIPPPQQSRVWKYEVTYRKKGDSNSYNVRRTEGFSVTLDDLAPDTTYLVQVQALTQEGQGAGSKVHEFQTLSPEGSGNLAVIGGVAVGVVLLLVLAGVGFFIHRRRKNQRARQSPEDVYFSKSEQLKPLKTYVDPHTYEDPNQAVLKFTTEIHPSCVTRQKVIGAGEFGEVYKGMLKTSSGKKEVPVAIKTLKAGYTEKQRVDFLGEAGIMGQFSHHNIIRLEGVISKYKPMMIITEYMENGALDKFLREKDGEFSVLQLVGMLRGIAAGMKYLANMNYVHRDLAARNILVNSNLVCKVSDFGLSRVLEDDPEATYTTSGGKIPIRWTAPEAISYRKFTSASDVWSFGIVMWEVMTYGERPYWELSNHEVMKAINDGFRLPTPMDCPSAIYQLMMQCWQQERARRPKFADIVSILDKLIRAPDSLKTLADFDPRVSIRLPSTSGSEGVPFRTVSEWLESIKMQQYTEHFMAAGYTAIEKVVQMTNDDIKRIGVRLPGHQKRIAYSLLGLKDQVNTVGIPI
Chain of FGFR1 (P11362 22-822, species assumed): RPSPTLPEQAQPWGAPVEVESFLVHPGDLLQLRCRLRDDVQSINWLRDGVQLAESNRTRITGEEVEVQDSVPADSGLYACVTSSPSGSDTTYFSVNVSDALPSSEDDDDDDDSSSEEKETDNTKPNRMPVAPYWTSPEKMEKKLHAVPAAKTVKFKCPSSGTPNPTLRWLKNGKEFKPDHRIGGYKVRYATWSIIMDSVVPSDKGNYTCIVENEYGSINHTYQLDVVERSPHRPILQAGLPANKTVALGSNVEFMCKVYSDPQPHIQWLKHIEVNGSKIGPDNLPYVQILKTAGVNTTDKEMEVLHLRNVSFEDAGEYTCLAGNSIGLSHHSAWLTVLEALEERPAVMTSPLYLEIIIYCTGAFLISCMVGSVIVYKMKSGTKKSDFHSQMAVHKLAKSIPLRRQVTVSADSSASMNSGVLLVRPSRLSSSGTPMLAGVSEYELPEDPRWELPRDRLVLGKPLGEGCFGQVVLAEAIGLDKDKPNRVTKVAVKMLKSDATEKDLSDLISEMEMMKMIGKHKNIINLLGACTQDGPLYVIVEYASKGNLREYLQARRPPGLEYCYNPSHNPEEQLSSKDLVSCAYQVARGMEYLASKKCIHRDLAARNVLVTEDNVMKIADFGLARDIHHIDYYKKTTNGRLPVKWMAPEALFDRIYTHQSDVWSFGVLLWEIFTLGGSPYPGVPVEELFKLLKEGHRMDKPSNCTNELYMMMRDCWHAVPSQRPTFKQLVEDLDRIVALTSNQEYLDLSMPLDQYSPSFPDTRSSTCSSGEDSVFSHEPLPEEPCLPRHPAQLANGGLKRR
Chain of Flt-1 (P17948 27-1338, species assumed): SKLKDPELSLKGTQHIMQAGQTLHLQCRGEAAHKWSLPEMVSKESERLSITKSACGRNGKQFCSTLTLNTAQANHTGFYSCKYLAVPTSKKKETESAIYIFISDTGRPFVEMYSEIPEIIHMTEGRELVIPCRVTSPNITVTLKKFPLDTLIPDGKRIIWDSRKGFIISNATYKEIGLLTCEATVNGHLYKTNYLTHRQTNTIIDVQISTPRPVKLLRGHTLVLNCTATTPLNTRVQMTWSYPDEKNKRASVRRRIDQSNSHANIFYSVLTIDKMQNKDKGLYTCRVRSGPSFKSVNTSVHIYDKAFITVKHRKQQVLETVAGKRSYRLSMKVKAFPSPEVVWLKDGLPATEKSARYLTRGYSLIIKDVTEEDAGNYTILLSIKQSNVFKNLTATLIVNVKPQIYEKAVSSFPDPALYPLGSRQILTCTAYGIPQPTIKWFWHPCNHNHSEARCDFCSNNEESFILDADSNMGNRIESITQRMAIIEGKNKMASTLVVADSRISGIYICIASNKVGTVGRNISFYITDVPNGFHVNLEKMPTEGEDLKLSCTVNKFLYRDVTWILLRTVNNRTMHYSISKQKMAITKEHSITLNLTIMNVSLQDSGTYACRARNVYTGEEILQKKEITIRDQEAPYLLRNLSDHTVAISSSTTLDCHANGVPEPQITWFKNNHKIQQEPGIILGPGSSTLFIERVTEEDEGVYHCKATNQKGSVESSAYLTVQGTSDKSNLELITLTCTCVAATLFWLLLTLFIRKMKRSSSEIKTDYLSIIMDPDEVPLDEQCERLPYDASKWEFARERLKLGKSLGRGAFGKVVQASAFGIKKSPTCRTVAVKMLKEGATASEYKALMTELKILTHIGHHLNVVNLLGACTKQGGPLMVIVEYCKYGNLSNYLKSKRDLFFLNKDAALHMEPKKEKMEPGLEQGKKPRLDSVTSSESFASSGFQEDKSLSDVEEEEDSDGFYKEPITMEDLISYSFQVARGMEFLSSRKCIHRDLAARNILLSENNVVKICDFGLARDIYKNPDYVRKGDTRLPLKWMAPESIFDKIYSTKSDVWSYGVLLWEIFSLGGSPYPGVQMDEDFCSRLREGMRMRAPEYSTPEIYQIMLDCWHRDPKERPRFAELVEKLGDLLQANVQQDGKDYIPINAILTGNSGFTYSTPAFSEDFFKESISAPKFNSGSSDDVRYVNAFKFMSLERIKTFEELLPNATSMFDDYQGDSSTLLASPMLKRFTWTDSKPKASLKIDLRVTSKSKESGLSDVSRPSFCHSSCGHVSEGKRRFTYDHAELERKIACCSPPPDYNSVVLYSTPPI
Chain of ABL (P00519 whole entry, species assumed): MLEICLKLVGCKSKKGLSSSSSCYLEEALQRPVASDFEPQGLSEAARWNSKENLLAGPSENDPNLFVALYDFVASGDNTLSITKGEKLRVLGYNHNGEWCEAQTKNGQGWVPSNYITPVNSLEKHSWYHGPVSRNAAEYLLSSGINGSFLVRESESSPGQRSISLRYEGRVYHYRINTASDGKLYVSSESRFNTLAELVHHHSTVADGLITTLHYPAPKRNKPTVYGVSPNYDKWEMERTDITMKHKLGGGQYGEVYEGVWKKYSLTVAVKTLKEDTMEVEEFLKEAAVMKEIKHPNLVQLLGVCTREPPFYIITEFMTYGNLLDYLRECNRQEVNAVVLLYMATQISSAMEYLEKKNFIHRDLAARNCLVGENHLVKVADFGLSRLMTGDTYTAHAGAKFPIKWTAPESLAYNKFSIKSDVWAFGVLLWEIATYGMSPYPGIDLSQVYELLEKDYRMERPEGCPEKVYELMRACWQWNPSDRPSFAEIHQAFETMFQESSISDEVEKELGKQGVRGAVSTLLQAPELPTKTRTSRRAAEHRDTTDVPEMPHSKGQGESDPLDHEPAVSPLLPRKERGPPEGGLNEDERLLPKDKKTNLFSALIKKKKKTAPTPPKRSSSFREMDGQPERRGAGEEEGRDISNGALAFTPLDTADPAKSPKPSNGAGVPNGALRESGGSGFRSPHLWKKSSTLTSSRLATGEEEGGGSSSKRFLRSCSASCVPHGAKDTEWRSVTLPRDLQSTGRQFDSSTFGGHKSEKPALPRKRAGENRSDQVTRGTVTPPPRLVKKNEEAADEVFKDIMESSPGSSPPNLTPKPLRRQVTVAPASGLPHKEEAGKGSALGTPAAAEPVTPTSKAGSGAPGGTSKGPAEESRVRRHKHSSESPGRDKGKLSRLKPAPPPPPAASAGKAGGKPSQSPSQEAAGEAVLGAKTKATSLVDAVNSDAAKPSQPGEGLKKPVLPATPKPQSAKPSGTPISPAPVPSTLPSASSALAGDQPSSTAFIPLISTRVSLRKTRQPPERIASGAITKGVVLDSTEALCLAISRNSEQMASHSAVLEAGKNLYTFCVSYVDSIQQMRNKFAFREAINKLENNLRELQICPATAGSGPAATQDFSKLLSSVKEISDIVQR
Chain of c-Src (P12931 whole entry, species assumed): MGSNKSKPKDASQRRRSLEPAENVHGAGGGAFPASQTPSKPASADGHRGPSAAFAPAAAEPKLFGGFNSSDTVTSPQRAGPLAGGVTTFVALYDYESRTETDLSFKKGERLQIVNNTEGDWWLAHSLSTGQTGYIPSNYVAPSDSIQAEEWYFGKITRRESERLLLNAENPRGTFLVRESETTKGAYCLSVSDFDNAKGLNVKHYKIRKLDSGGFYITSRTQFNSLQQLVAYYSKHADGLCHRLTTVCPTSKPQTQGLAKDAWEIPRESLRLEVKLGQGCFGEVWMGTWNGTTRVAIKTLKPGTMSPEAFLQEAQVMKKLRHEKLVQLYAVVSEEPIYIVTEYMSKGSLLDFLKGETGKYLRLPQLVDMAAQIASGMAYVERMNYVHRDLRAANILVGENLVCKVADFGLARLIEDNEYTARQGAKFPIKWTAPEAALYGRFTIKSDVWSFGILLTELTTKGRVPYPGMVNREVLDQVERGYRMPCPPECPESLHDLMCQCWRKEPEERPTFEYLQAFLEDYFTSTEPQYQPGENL

O=C(Nc1ccc(F)cc1)C1(C(=O)Nc2ccc(Oc3ccnc4cc(OCCN5CCOCC5)ncc34)c(F)c2)CC1 [Compound 7S, N-(3-fluoro-4-((7-(2-morpholinoethoxy)-1,6-naphthyridin-4-yl)oxy)phenyl)-N-(4-fluorophenyl)cyclopropyl-1,1-dicarboxamide]
bioavailability ([1]; male, Sprague-Dawley, plasma, oral, gavage 10 mg/kg vs intravenous 5 mg/kg, read-out: F (absolute bioavailability)): 51.8%
AUC(0-inf) [1, 3]: 16700 ng·h/mL
AUC(0-t) [1, 3]: 16500 ng·h/mL
Cmax [1, 3]: 5450 ng/mL
Tmax [1, 3]: 1.75 h
half-life [1, 3]: 1.66 h
AUC(0-inf) [1, 4]: 16000 ng·h/mL
AUC(0-t) [1, 4]: 15900 ng·h/mL
clearance [1, 4]: 5.23 mL/min/kg
half-life [1, 4]: 1 h
Vd ([1]; male, Sprague-Dawley, plasma, intravenous 5 mg/kg, mean, read-out: Vss): 0.346 L/kg
MRT ([1]; male, Sprague-Dawley, plasma, iv, 5 mg/kg, intravenous 5 mg/kg, mean, read-out: MRT): 1.11 h
MRT ([1]; male, Sprague-Dawley, plasma, po, 10 mg/kg, intragastric (gavage) 10 mg/kg, mean, read-out: MRT): 2.6 h
MRT ([1]; intragastric (gavage) 10 mg/kg, mean, 10 mg/kg): 2.653 h
inhibition at 1 µM (ErbB4): 6.6%
IC50 (c-Met kinase): 1 to 10 nM
inhibition at 1 µM (c-Met kinase; 1 μM, read-out: Inhibtion rate (%) c-Met): 100%
inhibition at 1 µM (EPH-A2): 87.9%
inhibition at 1 µM (ALK): 21.7%
IC50 (EBC-1 cells): 10 to 100 nM
inhibition at 1 µM (c-Src): 55.9%
inhibition at 1 µM (FGFR1): 36.3%
inhibition at 1 µM (PDGFR-α): 55.6%
inhibition at 1 µM (Flt-1): 70.3%
inhibition at 1 µM (IGF1R): 18.1%
TV (mm^3, mean ± SD) d0 ([2]; 10 mg/kg qd/21 po): 128 ± 34 mm^3
Weight (g) d0 ([2]; 10 mg/kg qd/21 po): 18.2 g
RTV (mean ± SD) ([2]; 10 mg/kg qd/21 po): 6.09 ± 2.17
T/C (%) ([2]; 10 mg/kg qd/21 po): 46.24%
TV (mm^3, mean ± SD) d21 ([2]; 10 mg/kg qd/21 po): 764 ± 258 mm^3
Weight (g) d21 ([2]; 10 mg/kg qd/21 po): 22.0 g
tumor volume growth inhibition rate GI [2, 5]: 96.5%
tumor weight inhibition rate [2, 5]: 86.9%
TV (mm^3, mean ± SD) d0 ([2]; 100 mg/kg qd/21 po): 128 ± 39 mm^3
Weight (g) d0 ([2]; 100 mg/kg qd/21 po): 17.4 g
RTV (mean ± SD) ([2]; 100 mg/kg qd/21 po): 1.26 ± 0.85
T/C (%) ([2]; 100 mg/kg qd/21 po): 9.58% and 9.5%
TV (mm^3, mean ± SD) d21 ([2]; 100 mg/kg qd/21 po): 181 ± 156 mm^3
Weight (g) d21 ([2]; 100 mg/kg qd/21 po): 20.7 g
safety in vivo ([2]; within effective dose): safe and non-toxic within effective dose
inhibition at 1 µM (PDGFR-β): 48.7%
inhibition at 1 µM (EGFR): 8.6%
inhibition at 1 µM (ABL): 23.3%
inhibition at 1 µM (RET): 78.2%

Source: US10710996B2, “Pyrido-azaheterecydic compound and preparation method and use thereof” (SHANGHAI INSTITUTE OF MATERIA MEDICA, CHINESE ACADEMY OF …, priority 2015, dated 2020)
